biological target: ROCK2 (Homo sapiens (Human), UniProt O75116); test: ROCK assay (peptide substrate phosphorylation, LABCHIP 3000 Reader); format: biochemical; conditions: 5 μM ATP, 1.5 μM peptide substrate
Experimental: Compounds were dissolved in DMSO so that the final concentration of DMSO was <2%, and the reaction was initiated with Rho kinase variants. After incubation, the reaction was terminated by the addition of EDTA and the phosphorylated and non-phosphorylated peptides separated using a LABCHIP® 3000 Reader (Caliper Life Sciences). […] Compounds were tested in dose-response format, and the inhibition of kinase activity was calculated at each concentration of compound.

Chain of ROCK2 (O75116 whole entry, species assumed): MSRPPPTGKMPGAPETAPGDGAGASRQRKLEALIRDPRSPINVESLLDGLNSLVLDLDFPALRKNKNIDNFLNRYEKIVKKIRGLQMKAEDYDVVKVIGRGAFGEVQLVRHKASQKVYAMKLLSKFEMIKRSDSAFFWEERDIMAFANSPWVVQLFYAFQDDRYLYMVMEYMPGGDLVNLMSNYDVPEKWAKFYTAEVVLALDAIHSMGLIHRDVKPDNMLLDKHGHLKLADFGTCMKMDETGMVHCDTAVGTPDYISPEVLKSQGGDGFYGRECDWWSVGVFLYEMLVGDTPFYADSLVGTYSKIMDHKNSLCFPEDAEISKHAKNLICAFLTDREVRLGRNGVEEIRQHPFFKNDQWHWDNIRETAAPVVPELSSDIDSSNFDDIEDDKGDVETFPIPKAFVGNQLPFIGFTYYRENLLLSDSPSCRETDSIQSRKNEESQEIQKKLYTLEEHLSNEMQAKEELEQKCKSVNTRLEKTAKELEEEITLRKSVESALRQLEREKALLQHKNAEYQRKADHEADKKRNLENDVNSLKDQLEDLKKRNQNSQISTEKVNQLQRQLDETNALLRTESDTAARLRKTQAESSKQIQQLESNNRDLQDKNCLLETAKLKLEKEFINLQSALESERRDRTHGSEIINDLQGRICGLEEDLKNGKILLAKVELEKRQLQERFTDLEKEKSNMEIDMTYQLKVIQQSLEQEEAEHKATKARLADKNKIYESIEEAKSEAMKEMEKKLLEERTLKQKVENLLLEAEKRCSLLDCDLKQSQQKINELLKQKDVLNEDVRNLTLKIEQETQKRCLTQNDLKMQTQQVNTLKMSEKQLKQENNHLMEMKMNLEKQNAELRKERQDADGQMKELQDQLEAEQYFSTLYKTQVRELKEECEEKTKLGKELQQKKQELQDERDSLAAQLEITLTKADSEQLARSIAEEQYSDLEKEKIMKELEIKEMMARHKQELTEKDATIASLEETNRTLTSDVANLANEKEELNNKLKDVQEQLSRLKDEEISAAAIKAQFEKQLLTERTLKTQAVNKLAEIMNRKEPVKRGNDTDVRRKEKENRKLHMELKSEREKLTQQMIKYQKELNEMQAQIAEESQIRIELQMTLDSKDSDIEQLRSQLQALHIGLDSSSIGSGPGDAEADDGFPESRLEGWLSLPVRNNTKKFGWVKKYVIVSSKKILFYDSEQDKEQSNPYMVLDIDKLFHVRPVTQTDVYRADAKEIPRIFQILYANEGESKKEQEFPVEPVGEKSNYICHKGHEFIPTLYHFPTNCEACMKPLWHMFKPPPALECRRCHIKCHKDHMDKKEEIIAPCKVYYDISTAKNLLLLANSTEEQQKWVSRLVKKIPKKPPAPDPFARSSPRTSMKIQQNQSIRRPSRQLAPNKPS

IC50 | Structure (SMILES)
5.32 nM | COc1cc(C(=O)N2CC(O)C[C@@H]2c2cccc(C(=O)NC3CC3)c2)ccc1-c1cn[nH]c1 (stereo partly drawn) [Example 48, N-cyclopropyl-3-[(2R)-4-hydroxy-1-[3-methoxy-4-(1H-pyrazol-4-yl)benzoyl]pyrrolidin-2-yl]benzamide]
43.4 nM | CCN1CCC[C@H]1CNC(=O)c1cccc([C@H]2CC(O)CN2C(=O)c2ccc(-c3cn[nH]c3)c(OC)c2)c1 (stereo partly drawn) [Example 49, N-{[(2S)-1-ethylpyrrolidin-2-yl]methyl}-3-[(2R)-4-hydroxy-1-[3-methoxy-4-(1H-pyrazol-4-yl)benzoyl]pyrrolidin-2-yl]benzamide]
5.1 nM | COCCNC(=O)c1cccc([C@H]2CC(O)CN2C(=O)c2ccc(-c3cn[nH]c3)c(OC)c2)c1 (stereo partly drawn) [Example 50, 3-[(2R)-4-hydroxy-1-[3-methoxy-4-(1H-pyrazol-4-yl)benzoyl]pyrrolidin-2-yl]-N-(2-methoxyethyl) benzamide]
2.71 nM | COc1cc(C(=O)N2CC(O)C[C@@H]2c2cccc(C(=O)NCC3CC3)c2)ccc1-c1cn[nH]c1 (stereo partly drawn) [Example 51, N-(cyclopropylmethyl)-3-[(2R)-4-hydroxy-1-[3-methoxy-4-(1H-pyrazol-4-yl)benzoyl]pyrrolidin-2-yl]benzamide]
6.68 nM | COc1cc(C(=O)N2CC(O)C[C@@H]2c2cccc(C(=O)NC(C)C)c2)ccc1-c1cn[nH]c1 (stereo partly drawn) [Example 52, 3-[(2R)-4-hydroxy-1-[3-methoxy-4-(1H-pyrazol-4-yl)benzoyl]pyrrolidin-2-yl]-N-(propan-2-yl)benzamide]
5.09 nM | COc1cc(C(=O)N2CC(O)C[C@@H]2c2cccc(C(=O)NC3CCC3)c2)ccc1-c1cn[nH]c1 (stereo partly drawn) [Example 54, N-cyclobutyl-3-[(2R)-4-hydroxy-1-[3-methoxy-4-(1H-pyrazol-4-yl)benzoyl]pyrrolidin-2-yl]benzamide]
2.5 nM | COc1cc(C(=O)N2CC(O)C[C@@H]2c2cccc(C(=O)NCc3ncco3)c2)ccc1-c1cn[nH]c1 (stereo partly drawn) [Example 55, 3-[(2R)-4-hydroxy-1-[3-methoxy-4-(1H-pyrazol-4-yl)benzoyl]pyrrolidin-2-yl]-N-(1,3-oxazol-2-ylmethyl)benzamide]
7.17 nM | COc1cc(C(=O)N2CC(O)C[C@@H]2c2cccc(C(=O)NC3CCOCC3)c2)ccc1-c1cn[nH]c1 (stereo partly drawn) [Example 56, 3-[(2R)-4-hydroxy-1-[3-methoxy-4-(1H-pyrazol-4-yl)benzoyl]pyrrolidin-2-yl]-N-(oxan-4-yl)benzamide]
43.4 nM | COc1cc(C(=O)N2CC(O)C[C@@H]2c2cccc(C(=O)NC3(C)CC3)c2)ccc1-c1cn[nH]c1 (stereo partly drawn) [Example 57, 3-[(2R)-4-hydroxy-1-[3-methoxy-4-(1H-pyrazol-4-yl)benzoyl]pyrrolidin-2-yl]-N-(1-methylcyclopropyl) benzamide]
5.32 nM | COc1cc(C(=O)N2CC(O)C[C@@H]2c2cccc(C(=O)NCc3cc(C)no3)c2)ccc1-c1cn[nH]c1 (stereo partly drawn) [Example 58, 3-[(2R)-4-hydroxy-1-[3-methoxy-4-(1H-pyrazol-4-yl)benzoyl]pyrrolidin-2-yl]-N-[(3-methyl-1,2-oxazol-5-yl)methyl] benzamide]
1.8 nM | COc1cc(C(=O)N2CC(O)C[C@@H]2c2cccc(C(=O)NCc3cc(C)on3)c2)ccc1-c1cn[nH]c1 (stereo partly drawn) [Example 59, 3-[(2R)-4-hydroxy-1-[3-methoxy-4-(1H-pyrazol-4-yl)benzoyl]pyrrolidin-2-yl]-N-[(5-methyl-1,2-oxazol-3-yl)methyl] benzamide]
4.08 nM | COc1cc(C(=O)N2CC(O)C[C@@H]2c2cccc(C(=O)NCC(F)F)c2)ccc1-c1cn[nH]c1 (stereo partly drawn) [Example 60, N-(2,2-difluoroethyl)-3-[(2R)-4-hydroxy-1-[3-methoxy-4-(1H-pyrazol-4-yl)benzoyl]pyrrolidin-2-yl]benzamide]
102 nM | COc1cc(C(=O)N2CC(O)C[C@@H]2c2cccc(C(=O)N3CC(C#N)C3)c2)ccc1-c1cn[nH]c1 (stereo partly drawn) [Example 61, 1-{3-[(2R)-4-hydroxy-1-[3-methoxy-4-(1H-pyrazol-4-yl)benzoyl]pyrrolidin-2-yl]benzoyl} azetidin-3-carbonitrile]
316 nM | COc1cc(C(=O)N2CC(O)C[C@@H]2c2cccc(C(=O)N3CC(OC)C3)c2)ccc1-c1cn[nH]c1 (stereo partly drawn) [Example 62, (5R)-1-[3-methoxy-4-(1H-pyrazol-4-yl)benzoyl]-5-[3-(3-methoxyazetidine-1-carbonly)phenyl] pyrrolidin-3-ol]
5.25 nM | COc1cc(C(=O)N2CC(O)C[C@@H]2c2cccc(C(=O)NCc3ccc(C(F)(F)F)cc3F)c2)ccc1-c1cn[nH]c1 (stereo partly drawn) [Example 63, N-{[2-fluoro-4-(trifluoromethyl)phenyl]methyl}-3-[(2R)-4-hydroxy-1-[3-methoxy-4-(1H-pyrazol-4-yl)benzoyl]pyrrolidin-2-yl]benzamide]
204 nM | COc1cc(C(=O)N2CC(O)C[C@@H]2c2cccc(C(=O)N3CC(F)C3)c2)ccc1-c1cn[nH]c1 (stereo partly drawn) [Example 64, (5R)-5-[3-(3-fluoroazetidine-1-carbonyl)phenyl]-1-[3-methoxy-4-(1H-pyrazol-4-yl)benzoyl]pyrrolidin-3-ol]
91.4 nM | COc1cc(C(=O)N2CC(O)C[C@@H]2c2cccc(C(=O)N3CC(F)(F)C3)c2)ccc1-c1cn[nH]c1 (stereo partly drawn) [Example 65, (5R)-5-[3-(3,3-difluoroazetidine-1-carbonyl)phenyl]-1-[3-methoxy-4-(1H-pyrazol-4-yl)benzoyl]pyrrolidin-3-ol]

IC50 | Structure (SMILES)
4.35 nM | COc1cc(C(=O)N2CC(O)C[C@@H]2c2cccc(C(=O)NCc3cc(F)cc(C(F)(F)F)c3)c2)ccc1-c1cn[nH]c1 (stereo partly drawn) [Example 66, N-{[3-fluoro-5-(trifluoromethyl)phenyl]methyl}-3-[(2R)-4-hydroxy-1-[3-methoxy-4-(1H-pyrazol-4-yl)benzoyl]pyrrolidin-2-yl]benzamide]
293 nM | COc1cc(C(=O)N2CC(O)C[C@@H]2c2cccc(C(=O)N3CCC3)c2)ccc1-c1cn[nH]c1 (stereo partly drawn) [Example 67, (5R)-5-[3-(azetidine-1-carbonyl)phenyl]-1-[3-methoxy-4-(1H-pyrazol-4-yl)benzoyl]pyrrolidin-3-ol]
60.2 nM | COc1cc(C(=O)N2CCNCC2c2ccccc2)ccc1-c1cn[nH]c1 (stereo not shown) [Example 68, 1-[3-Methoxy-4-(1H-pyrazol-4-yl)benzoyl]-2-phenylpiperazine]
3.59 nM | COc1cc(C(=O)N[C@@H]2CNC[C@H]2c2ccccc2)ccc1-c1cn[nH]c1 [Example 69, 3-Methoxy-N-[(3S,4R)-4-phenylpyrrolidin-3-yl]-4-(1H-pyrazol-4-yl)benzamide]
54.9 nM | COc1cc(C(=O)N2CCCC2c2cccc(-c3cn[nH]c3)c2)ccc1-c1cn[nH]c1 (stereo not shown) [Example 71, 4-(2-Methoxy-4-{2-[3-(1H-pyrazol-4-yl)phenyl]pyrrolidine-1-carbonyl}phenyl)-1H-pyrazole]
1600 nM | COc1cc(-c2cn[nH]c2)ccc1C(=O)N1CCCC1c1cccc(-c2cn[nH]c2)c1 (stereo not shown) [Example 72, 4-(3-methoxy-4-{2-[3-(1H-pyrazol-4-yl)phenyl]pyrrolidine-1-carbonyl}phenyl)-1H-pyrazole]
1530 nM | COc1cc(C(=O)N2CCCC2c2cccc(-c3ccnn3C)c2)ccc1-c1cn[nH]c1 (stereo not shown) [Example 73, 5-(3-{1-[3-methoxy-4-(1H-pyrazol-4-yl)benzoyl]pyrrolidin-2-yl}phenyl)-1-methyl-1H-pyrazole]
901 nM | COc1cc(C(=O)N2CCCC2c2cccc(-c3cnn(CC(C)(C)O)c3)c2)ccc1-c1cn[nH]c1 (stereo not shown) [Example 74, 1-[4-(3-{1-[3-methoxy-4-(1H-pyrazol-4-yl)benzoyl]pyrrolidin-2-yl}phenyl)-1H-pyrazol-1-yl]-2-methylpropan-2-ol]
1570 nM | COc1cc(C(=O)N2CCCC2c2cccc(-c3c(C)noc3C)c2)ccc1-c1cn[nH]c1 (stereo not shown) [Example 75, 4-(3-{1-[3-methoxy-4-(1H-pyrazol-4-yl)benzoyl]pyrrolidin-2-yl}phenyl)-3,5-dimethyl-1,2-oxazole]
320 nM | COc1cc(C(=O)N2CCCC2c2cccc(-c3ccoc3)c2)ccc1-c1cn[nH]c1 (stereo not shown) [Example 76, 4-(4-{2-[3-(furan-3-yl)phenyl]pyrrolidine-1-carbonyl}-2-methoxyphenyl)-1H-pyrazole]
887 nM | COc1cc(C(=O)N2CCCC2c2cccc(-c3ccn[nH]3)c2)ccc1-c1cn[nH]c1 (stereo not shown) [Example 77, 4-(2-methoxy-4-{2-[3-(1H-pyrazol-5-yl)phenyl]pyrrolidine-1-carbonyl}phenyl)-1H-pyrazole]
4.7 nM | COc1cc(C(=O)N2CC(F)C[C@@H]2c2cccc(C(=O)NC3CC3)c2)ccc1-c1cn[nH]c1 (stereo partly drawn) [Example 78, N-Cyclopropyl-3-[(2R)-4-fluoro-1-[3-methoxy-4-(1H-pyrazol-4-yl)benzoyl]pyrrolidin-2-yl]benzamide]
24.3 nM | COc1cc(C(=O)N2CC(F)(F)C[C@@H]2c2cccc(C(=O)NC3CC3)c2)ccc1-c1ccncc1 [Example 79, N-Cyclopropyl-3-[(2R)-4,4-difluoro-1-[3-methoxy-4-(pyridin-4-yl)benzoyl]pyrrolidin-2-yl]benzamide]
5.4 nM | COc1cc(C(=O)N2CC(F)(F)C[C@@H]2c2cccc(C(=O)NC3CC3)c2)ccc1-c1cn[nH]c1 [Example 80, N-Cyclopropyl-3-[(2R)-4,4-difluoro-1-[3-methoxy-4-(1H-pyrazol-4-yl)benzoyl]pyrrolidin-2-yl]benzamide]
158 nM | COc1cccc(C2CCCN2C(=O)c2ccc(-c3ccnc(N)c3)c(OC)c2)c1 (stereo not shown) [Example 81, 4-{2-Methoxy-4-[2-(3-methoxyphenyl)pyrrolidine-1-carbonyl]phenyl} pyridin-2-amine]
56.8 nM | COc1cccc(C2CCCN2C(=O)c2ccc(-c3ccnc4[nH]ccc34)c(OC)c2)c1 (stereo not shown) [Example 82, 1-(3-methoxy-4-{1H-pyrrolo[2,3-b]pyridin-4-yl}benzoyl)-2-(3-methoxyphenyl) pyrrolidine]
153 nM | COc1cccc(C2CCCN2C(=O)c2ccc(-c3ccnc(F)c3)c(OC)c2)c1 (stereo not shown) [Example 83, 2-fluoro-4-{2-methoxy-4-[2-(3-methoxyphenyl)pyrrolidine-1-carbonyl]phenyl}pyridine]

— patent US10112939B2, “Tied-back benzamide derivatives as potent rock inhibitors” (Bristol-Myers Squibb Company, priority 2014, dated 2018)
